A short description of test [1]: Luminescence-based counterscreen assay for KLF5 inhibitors: dose response cell-based high throughput screening assay to identify cytotoxic compounds using the IEC-6 intestinal epithelial cell line. [Related pubchem assays: 1700 (Primary screen.), 1834 (Confirmation screen.), 1858 (Summary AID.), 1905 (Counterscreen.)]. In kind it is functional.
For test [2], the target named is T1, Replicative DNA helicase DnaB (Mycobacterium tuberculosis, UniProt P9WMR3).
T1 sequence (P9WMR3 whole entry): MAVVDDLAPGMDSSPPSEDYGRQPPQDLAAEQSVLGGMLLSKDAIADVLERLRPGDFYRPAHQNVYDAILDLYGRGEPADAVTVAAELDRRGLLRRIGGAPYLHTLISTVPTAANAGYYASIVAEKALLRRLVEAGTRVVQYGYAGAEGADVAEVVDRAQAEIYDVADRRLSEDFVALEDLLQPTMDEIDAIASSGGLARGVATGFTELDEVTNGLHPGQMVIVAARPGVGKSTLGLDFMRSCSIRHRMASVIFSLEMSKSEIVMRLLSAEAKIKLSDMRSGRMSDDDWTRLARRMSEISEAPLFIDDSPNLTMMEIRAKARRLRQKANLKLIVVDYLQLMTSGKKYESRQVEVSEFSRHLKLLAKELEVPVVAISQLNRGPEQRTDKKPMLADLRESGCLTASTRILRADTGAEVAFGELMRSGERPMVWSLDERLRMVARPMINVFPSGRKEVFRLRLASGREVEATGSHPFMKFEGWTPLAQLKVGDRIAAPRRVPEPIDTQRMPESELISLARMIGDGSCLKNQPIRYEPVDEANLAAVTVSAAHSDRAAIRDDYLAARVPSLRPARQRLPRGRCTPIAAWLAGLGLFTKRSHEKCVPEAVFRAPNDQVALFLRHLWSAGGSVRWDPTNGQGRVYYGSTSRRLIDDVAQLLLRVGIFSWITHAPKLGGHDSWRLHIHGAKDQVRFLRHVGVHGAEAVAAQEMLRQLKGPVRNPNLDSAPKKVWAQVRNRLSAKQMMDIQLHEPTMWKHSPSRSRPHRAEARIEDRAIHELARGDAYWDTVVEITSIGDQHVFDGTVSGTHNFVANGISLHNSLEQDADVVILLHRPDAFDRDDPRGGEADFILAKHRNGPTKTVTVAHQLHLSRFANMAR
In words: DnaB intein splicing inhibitors, dose response, biochemical, cell-free fluorescence (AID 449749). In kind it is functional.

For test [3], the target named is T2, Protein RecA (Mycobacterium tuberculosis, UniProt P9WHJ3).
T2 sequence (P9WHJ3 whole entry): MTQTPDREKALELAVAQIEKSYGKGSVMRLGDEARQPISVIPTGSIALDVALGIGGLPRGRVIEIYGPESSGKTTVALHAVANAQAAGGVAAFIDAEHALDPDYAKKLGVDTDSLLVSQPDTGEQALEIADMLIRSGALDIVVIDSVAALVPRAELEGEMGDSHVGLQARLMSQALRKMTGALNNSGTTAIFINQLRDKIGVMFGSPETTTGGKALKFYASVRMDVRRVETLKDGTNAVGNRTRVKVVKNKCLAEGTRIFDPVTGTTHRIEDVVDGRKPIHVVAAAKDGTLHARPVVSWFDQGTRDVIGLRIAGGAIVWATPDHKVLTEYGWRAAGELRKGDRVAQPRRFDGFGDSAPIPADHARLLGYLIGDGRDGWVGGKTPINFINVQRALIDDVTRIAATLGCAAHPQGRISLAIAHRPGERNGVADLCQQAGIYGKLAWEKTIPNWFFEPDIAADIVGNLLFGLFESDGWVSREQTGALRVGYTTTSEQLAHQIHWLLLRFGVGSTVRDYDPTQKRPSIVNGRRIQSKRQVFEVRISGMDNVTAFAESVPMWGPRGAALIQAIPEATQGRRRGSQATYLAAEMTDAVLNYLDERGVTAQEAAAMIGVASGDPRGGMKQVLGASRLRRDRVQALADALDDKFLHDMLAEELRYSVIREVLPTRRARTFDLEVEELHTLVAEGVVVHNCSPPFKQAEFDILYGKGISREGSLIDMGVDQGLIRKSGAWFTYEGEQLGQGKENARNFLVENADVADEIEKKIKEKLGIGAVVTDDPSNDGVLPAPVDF
Description: Fluorescence Cell-Free Homogeneous Dose Retest to Identify Inhibitors of RecA-Intein Splicing Activity. [Related pubchem assays (depositor defined):AID2097, AID2223, AID489010, AID492950]. The format is functional.

Test [4] deals with T3, Mannose-6-phosphate isomerase (Homo sapiens, UniProt P34949).
T3 sequence (P34949 whole entry): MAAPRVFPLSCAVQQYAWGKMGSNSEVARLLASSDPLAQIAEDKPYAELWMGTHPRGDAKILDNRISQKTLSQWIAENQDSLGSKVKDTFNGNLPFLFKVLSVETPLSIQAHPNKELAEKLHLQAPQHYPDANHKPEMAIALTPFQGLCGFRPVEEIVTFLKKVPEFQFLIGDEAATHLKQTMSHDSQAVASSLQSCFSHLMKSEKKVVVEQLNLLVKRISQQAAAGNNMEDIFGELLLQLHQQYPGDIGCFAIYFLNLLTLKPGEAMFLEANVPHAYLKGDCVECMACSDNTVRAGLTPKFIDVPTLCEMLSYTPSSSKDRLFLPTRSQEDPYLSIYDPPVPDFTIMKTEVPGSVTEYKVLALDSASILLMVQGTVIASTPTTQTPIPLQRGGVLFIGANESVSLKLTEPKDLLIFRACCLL
Description: inhibitors of human PMI, primary screen, biochemical, fluorescence intensity, coupled assay (AID 1209).

For test [5], the target named is T4, Protein skinhead-1 (Caenorhabditis elegans, UniProt P34707).
T4 sequence (P34707 whole entry): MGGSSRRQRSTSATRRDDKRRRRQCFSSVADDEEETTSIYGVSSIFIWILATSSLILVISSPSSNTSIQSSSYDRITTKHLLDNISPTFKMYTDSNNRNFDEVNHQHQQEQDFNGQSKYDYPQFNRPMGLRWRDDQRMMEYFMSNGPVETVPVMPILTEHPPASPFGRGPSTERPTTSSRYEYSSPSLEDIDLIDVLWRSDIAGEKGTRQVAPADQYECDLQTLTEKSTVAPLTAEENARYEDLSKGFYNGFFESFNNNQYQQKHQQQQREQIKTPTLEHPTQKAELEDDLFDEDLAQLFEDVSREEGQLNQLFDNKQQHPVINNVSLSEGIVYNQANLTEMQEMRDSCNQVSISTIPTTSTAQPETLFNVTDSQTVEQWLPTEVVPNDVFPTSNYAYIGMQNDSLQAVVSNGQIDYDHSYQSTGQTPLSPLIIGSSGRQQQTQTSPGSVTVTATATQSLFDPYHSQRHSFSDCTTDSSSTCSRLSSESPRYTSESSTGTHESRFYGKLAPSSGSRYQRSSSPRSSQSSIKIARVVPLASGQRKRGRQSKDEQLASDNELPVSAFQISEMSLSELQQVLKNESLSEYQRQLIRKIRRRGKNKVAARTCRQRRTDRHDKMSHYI
The format is functional.

The target in test [6] is T3, Mannose-6-phosphate isomerase. In words: human PMI inhibitors, high substrate, primary screen, biochemical, fluorescence intensity, high mannose 6-phosphate (AID 1220).
Test [7] has as its target Peroxisome proliferator-activated receptor gamma/Nuclear receptor corepressor 2 (Homo sapiens, UniProt P37231+Q9Y618). Description: Counterscreen for NR2E3 inverse agonists: TR-FRET-based biochemical high throughput dose response assay to identify inverse agonists of the interaction between peroxisome proliferator-activated receptor gamma (PPARg) and nuclear receptor co-repressor 2 (NCOR2). The format is functional.

Test [8] deals with T5, Small ubiquitin-related modifier 1 (Homo sapiens, UniProt P63165). Description: inhibitors of SUMO1 partner interactions, dose response, biochemical, FRET (AID 624383). The format is functional. The conditions noted are these: read-out: IC50_Mean.
T5 sequence (P63165 whole entry): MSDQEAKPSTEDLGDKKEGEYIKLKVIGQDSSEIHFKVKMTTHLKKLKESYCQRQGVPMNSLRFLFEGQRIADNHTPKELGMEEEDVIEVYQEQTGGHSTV
The target in test [9] is T5, Small ubiquitin-related modifier 1. Description: inhibitors of SUMO1 peptide binding, dose response, biochemical, fluorescence polarization, uHTS hits (AID 624382). In kind it is functional. The following applies: read-out: IC50_Mean.
The target in test [10] is Photoreceptor-specific nuclear receptor (Homo sapiens, UniProt Q9Y5X4). In words: NR2E3 inverse agonists, dose response, biochemical, TR-FRET (AID 463256). The format is functional.
Sequence of Photoreceptor-specific nuclear receptor (Q9Y5X4 whole entry): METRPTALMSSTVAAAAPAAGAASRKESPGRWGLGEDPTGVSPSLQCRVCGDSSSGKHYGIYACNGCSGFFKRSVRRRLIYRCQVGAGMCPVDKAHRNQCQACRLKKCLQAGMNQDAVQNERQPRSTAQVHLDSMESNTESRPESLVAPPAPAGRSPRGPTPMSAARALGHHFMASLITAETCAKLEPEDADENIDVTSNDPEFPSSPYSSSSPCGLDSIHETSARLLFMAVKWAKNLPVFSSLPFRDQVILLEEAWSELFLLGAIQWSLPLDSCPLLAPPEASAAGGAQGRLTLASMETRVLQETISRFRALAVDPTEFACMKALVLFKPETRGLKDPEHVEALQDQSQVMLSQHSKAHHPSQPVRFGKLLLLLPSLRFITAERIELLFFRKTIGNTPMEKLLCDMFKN

The results in this text go back to ChEMBL document CHEMBL1201862, “PubChem BioAssay data set” (2004).

SMILES strings stand for the structures. Active and inactive are the calls of the source.

Sequence of Peroxisome proliferator-activated receptor gamma/Nuclear receptor corepressor 2 (P37231 whole entry): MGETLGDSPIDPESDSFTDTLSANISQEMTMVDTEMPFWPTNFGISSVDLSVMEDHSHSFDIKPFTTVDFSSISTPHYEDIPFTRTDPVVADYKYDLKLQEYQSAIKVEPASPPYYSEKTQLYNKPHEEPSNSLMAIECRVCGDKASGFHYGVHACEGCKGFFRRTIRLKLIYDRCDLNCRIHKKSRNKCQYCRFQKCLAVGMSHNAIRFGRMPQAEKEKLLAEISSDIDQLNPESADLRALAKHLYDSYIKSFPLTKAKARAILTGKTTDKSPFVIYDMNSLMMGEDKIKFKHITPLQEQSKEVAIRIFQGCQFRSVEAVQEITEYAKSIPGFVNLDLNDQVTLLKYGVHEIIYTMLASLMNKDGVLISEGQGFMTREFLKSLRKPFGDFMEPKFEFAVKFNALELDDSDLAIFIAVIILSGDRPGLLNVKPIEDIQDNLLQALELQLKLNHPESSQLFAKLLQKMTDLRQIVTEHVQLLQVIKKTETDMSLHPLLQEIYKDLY
Sequence of Peroxisome proliferator-activated receptor gamma/Nuclear receptor corepressor 2 (Q9Y618 whole entry): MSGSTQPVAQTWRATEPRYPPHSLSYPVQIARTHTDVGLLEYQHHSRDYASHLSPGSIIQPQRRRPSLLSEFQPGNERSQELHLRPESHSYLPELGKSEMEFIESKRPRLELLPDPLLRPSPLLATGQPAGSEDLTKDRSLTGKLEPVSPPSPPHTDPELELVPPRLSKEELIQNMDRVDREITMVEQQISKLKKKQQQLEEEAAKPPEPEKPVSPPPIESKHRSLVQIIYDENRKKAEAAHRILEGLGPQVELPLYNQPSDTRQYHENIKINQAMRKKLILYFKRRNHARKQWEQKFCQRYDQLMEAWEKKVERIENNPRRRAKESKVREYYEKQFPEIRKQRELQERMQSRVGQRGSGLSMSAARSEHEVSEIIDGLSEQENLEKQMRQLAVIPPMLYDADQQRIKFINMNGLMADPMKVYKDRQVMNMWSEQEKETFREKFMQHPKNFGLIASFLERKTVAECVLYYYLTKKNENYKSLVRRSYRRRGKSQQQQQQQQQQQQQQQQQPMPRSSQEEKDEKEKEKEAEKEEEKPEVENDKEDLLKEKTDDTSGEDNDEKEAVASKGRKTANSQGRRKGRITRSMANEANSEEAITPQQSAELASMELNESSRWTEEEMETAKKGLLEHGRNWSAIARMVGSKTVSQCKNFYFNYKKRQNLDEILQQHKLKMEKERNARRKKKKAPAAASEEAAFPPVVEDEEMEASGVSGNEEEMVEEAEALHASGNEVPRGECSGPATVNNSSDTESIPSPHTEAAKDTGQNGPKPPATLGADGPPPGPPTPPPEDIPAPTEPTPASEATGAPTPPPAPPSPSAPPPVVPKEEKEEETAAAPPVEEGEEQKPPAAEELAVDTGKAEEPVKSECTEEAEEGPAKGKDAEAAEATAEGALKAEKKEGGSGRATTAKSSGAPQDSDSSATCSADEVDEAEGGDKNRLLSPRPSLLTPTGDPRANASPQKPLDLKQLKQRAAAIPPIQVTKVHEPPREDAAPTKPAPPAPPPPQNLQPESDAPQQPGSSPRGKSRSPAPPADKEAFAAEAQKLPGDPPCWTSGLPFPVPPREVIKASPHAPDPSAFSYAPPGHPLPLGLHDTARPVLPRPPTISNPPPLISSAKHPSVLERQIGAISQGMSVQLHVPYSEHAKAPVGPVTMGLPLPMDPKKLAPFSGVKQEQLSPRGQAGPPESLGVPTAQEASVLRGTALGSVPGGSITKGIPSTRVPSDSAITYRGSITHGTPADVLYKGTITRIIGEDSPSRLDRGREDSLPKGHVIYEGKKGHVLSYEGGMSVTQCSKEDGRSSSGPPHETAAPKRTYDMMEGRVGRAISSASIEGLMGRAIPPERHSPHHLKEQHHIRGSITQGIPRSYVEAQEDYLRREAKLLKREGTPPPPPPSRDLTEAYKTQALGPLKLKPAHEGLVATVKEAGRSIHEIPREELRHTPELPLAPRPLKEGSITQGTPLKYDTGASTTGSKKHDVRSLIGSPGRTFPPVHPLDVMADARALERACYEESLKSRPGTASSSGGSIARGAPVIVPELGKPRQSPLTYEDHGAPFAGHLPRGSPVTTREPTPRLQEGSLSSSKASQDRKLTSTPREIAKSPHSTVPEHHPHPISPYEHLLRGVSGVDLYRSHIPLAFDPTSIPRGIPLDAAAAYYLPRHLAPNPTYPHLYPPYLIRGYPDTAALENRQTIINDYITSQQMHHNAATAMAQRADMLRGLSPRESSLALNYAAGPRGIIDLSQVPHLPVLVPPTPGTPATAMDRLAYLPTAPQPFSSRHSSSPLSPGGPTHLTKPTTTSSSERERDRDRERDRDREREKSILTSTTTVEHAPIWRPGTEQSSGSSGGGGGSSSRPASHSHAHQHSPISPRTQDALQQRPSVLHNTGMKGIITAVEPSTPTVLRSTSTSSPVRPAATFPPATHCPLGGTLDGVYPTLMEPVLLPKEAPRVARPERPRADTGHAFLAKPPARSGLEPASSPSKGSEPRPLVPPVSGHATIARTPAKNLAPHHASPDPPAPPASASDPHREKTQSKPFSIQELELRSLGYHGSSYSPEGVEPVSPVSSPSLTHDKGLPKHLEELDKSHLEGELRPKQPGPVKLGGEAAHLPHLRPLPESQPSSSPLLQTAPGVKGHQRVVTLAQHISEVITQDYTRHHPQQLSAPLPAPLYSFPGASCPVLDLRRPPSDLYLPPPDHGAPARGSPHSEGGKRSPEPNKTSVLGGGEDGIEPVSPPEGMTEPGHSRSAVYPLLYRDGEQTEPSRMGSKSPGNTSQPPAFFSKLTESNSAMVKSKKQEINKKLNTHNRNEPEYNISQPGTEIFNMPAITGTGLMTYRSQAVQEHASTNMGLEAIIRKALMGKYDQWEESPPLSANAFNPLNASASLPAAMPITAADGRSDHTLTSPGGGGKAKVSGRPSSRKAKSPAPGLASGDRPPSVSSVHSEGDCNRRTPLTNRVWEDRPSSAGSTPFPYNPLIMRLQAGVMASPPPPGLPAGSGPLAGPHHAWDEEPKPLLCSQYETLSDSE

Turning to `COc1ccc2nc(SCC(=O)NC3CCCC3)c(C)cc2c1`, the IC50 in test [1] was 16 µM (not active).

Turning to `CCN(CC)c1ccc2oc(=O)c(C)nc2c1`, the AC50 in [2] is > 380 µM (inactive). For the same compound, the EC50 in test [3] is 7.63 µM (active). Moreover, the IC50 in [4] was 10 µM (active); in test [5] it was > 100 µM (inactive); in [6], 12.7 µM (active).

In the case of `Cc1ccc(NC(=O)CSc2nc3ccccc3c3nc(CCc4c(C)n[nH]c4C)nn23)cc1F`, the IC50 in [7] was 356 nM (active); in test [8] it was 3.78 µM (active); in test [9], > 66.6 µM (inactive); in test [10], 474 nM (active).
